Columns and labels:
BCL-2 = target: T1, BCL-2 (Homo sapiens, UniProt P10415); experiment: HTRF BCL-2/BAK assay (Cisbio); assay type: binding; settings: recombinant human Tag1-BCL-2 2 nM, Tag2-BAK 10 nM
T1 construct: purchased Cisbio 63ADK000CB01PEG
Protocol: Then the pre-mixed anti-Tag1-Eu^3+ and anti-tag2-XL665 were added to the plate and further incubated at room temperature for another 2 hours. The signals ([…]) were read on Envision 2104 instrument. The IC50 for each compound was derived from fitting the signal of 665/615 nM to the increasing compound concentration.
Using the above assays, the following compounds were tested.

DOHH2 cells = experiment: CellTiter-Glo cell proliferation assay, DOHH2 cells; assay type: cell-based; settings: Homo sapiens, DOHH-2, 72 hours
Protocol: The CellTiter-Glo® Luminescent Cell Viability Assay (Promega, G7573) was used to study the cellular potency of disclosed compounds herein. The cells were harvested during the logarithmic growth period and counted with hemocytometer. The DOHH2 cells were seeded at 1.6*10^4 in 90 ul DMEM medium supplemented with 10% fetal bovine serum (FBS) (as RS4;11 cells were seeded at 4000 in 90 ul RPMI-1640 medium with 10% FBS) per well in 96-well plates and treated with 10 ul of a serial dilution of compounds disclosed herein (maximum concentration and dilution ratio determined by the results of pre-experiment may vary) for 72 hours in a 5% CO2 incubator at 37° C. Cell viability was assessed according to the manufacturer's recommendations. After the plates return to the room temperature, 100 ul of CellTiter-Glo® reagent was added to 100 ul of cell culture. The mixture was agitated on an orbital shaker for 2 minutes or placed it at room temperature for 10 minutes to allow cell lysis and stabilization of luminescent signals. Luminescent signals were recorded using Envision 2104 instrument. And GI50 values were then calculated.

T1 sequence (P10415 whole entry): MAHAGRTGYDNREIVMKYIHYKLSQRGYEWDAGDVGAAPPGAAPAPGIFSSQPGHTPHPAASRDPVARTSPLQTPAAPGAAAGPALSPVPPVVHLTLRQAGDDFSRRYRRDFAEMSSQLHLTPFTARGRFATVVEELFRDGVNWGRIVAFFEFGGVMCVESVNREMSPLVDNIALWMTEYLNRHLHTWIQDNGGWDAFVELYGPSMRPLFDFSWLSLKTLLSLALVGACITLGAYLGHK

SMILES | IC50 (BCL-2) [nM] | GI50 (DOHH2 cells) [nM]
O=C(NS(=O)(=O)c1ccc(NCC2CCOCC2)c([N+](=O)[O-])c1)c1ccc(N2CCN(C3CCc4ccccc43)CC2)cc1Oc1cnc2[nH]ccc2c1 (stereo not shown) [Compound 4, 2-((1H-pyrrolo[2,3-b]pyridin-5-yl)oxy)-4-(4-(2,3-dihydro-1H-inden-1-yl)piperazin-1-yl)-N-((3-nitro-4-(((tetrahydro-2H-pyran-4-yl)methyl)amino)phenyl)sulfonyl)benzamide] | 20 to 200 | 500 to 5000
O=C(NS(=O)(=O)c1ccc(NCC2CCOCC2)c([N+](=O)[O-])c1)c1ccc(N2CCN(C3CCCCc4ccccc43)CC2)cc1Oc1cnc2[nH]ccc2c1 (stereo not shown) [Compound 6, 2-((1H-pyrrolo[2,3-b]pyridin-5-yl)oxy)-N-((3-nitro-4-(((tetrahydro-2H-pyran-4-yl)methyl)amino)phenyl)sulfonyl)-4-(4-(6,7,8,9-tetrahydro-5H-benzo[7]annulen-5-yl)piperazin-1-yl)benzamide] | < 20 | 50 to 500
O=C(NS(=O)(=O)c1ccc(NCC2CCOCC2)c([N+](=O)[O-])c1)c1ccc(N2CCN(C3CCOc4ccccc43)CC2)cc1Oc1cnc2[nH]ccc2c1 (stereo not shown) [Compound 17, 2-((1H-pyrrolo[2,3-b]pyridin-5-yl)oxy)-4-(4-(chroman-4-yl)piperazin-1-yl)-N-((3-nitro-4-(((tetrahydro-2H-pyran-4-yl)methyl)amino)phenyl)sulfonyl)benzamide] | 20 to 200 | 500 to 5000
O=C(NS(=O)(=O)c1ccc(NCC2CCOCC2)c([N+](=O)[O-])c1)c1ccc(N2CCN(C3CCCCc4ccc(-c5ccccc5)cc43)CC2)cc1Oc1cnc2[nH]ccc2c1 (stereo not shown) [Compound 22, 2-((1H-pyrrolo[2,3-b]pyridin-5-yl)oxy)-N-((3-nitro-4-(((tetrahydro-2H-pyran-4-yl)methyl)amino)phenyl)sulfonyl)-4-(4-(3-phenyl-6,7,8,9-tetrahydro-5H-benzo[7]annulen-5-yl)piperazin-1-yl)benzamide] | 20 to 200 | 500 to 5000
O=C(NS(=O)(=O)c1ccc(NCC2CCOCC2)c([N+](=O)[O-])c1)c1ccc(N2CCN(C3CCCCc4c(Cl)cccc43)CC2)cc1Oc1cnc2[nH]ccc2c1 (stereo not shown) [Compound 27, 2-((1H-pyrrolo[2,3-b]pyridin-5-yl)oxy)-4-(4-(1-chloro-6,7,8,9-tetrahydro-5H-benzo[7]annulen-5-yl)piperazin-1-yl)-N-((3-nitro-4-(((tetrahydro-2H-pyran-4-yl)methyl)amino)phenyl)sulfonyl)benzamide] | < 20 | < 50
O=C(NS(=O)(=O)c1ccc(NCC2CCOCC2)c([N+](=O)[O-])c1)c1ccc(N2CCN(C3CCCOc4ccccc43)CC2)cc1Oc1cnc2[nH]ccc2c1 (stereo not shown) [Compound 36, 2-((1H-pyrrolo[2,3-b]pyridin-5-yl)oxy)-N-((3-nitro-4-(((tetrahydro-2H-pyran-4-yl)methyl)amino)phenyl)sulfonyl)-4-(4-(2,3,4,5-tetrahydrobenzo[b]oxepin-5-yl)piperazin-1-yl)benzamide] | < 20 | 50 to 500
O=C(NS(=O)(=O)c1ccc(NCC2CCOCC2)c([N+](=O)[O-])c1)c1ccc(N2CCN(C3CCCCc4c(C5CCCC5)cccc43)CC2)cc1Oc1cnc2[nH]ccc2c1 (stereo not shown) [Compound 55, 2-((1H-pyrrolo[2,3-b]pyridin-5-yl)oxy)-4-(4-(1-cyclopentyl-6,7,8,9-tetrahydro-5H-benzo[7]annulen-5-yl)piperazin-1-yl)-N-((3-nitro-4-(((tetrahydro-2H-pyran-4-yl)methyl)amino)phenyl)sulfonyl)benzamide] | 20 to 200 | > 5000
Cc1nnc2n1CC(CNc1ccc(S(=O)(=O)NC(=O)c3ccc(N4CCN(C5CCCCc6c(Cl)cccc65)CC4)cc3Oc3cnc4[nH]ccc4c3)cc1[N+](=O)[O-])CC2 (stereo not shown) [Compound 57, 2-((1H-pyrrolo[2,3-b]pyridin-5-yl)oxy)-4-(4-(1-chloro-6,7,8,9-tetrahydro-5H-benzo[7]annulen-5-yl)piperazin-1-yl)-N-((4-(((3-methyl-5,6,7,8-tetrahydro-[1,2,4]triazolo[4,3-a]pyridin-6-yl)methyl)amino)-3-nitrophenyl)sulfonyl)benzamide] | < 20 | 500 to 5000
Nc1cccc2c1CCCCC2N1CCN(c2ccc(C(=O)NS(=O)(=O)c3ccc(NCC4CCOCC4)c([N+](=O)[O-])c3)c(Oc3cnc4[nH]ccc4c3)c2)CC1 (stereo not shown) [Compound 58, 2-((1H-pyrrolo[2,3-b]pyridin-5-yl)oxy)-4-(4-(1-amino-6,7,8,9-tetrahydro-5H-benzo[7]annulen-5-yl)piperazin-1-yl)-N-((3-nitro-4-(((tetrahydro-2H-pyran-4-yl)methyl)amino)phenyl)sulfonyl)benzamide] | < 20 | 500 to 5000
CC(=O)Nc1cccc2c1CCCCC2N1CCN(c2ccc(C(=O)NS(=O)(=O)c3ccc(NCC4CCOCC4)c([N+](=O)[O-])c3)c(Oc3cnc4[nH]ccc4c3)c2)CC1 (stereo not shown) [Compound 59, 2-((1H-pyrrolo[2,3-b]pyridin-5-yl)oxy)-4-(4-(1-acetamido-6,7,8,9-tetrahydro-5H-benzo[7]annulen-5-yl)piperazin-1-yl)-N-((3-nitro-4-(((tetrahydro-2H-pyran-4-yl)methyl)amino)phenyl)sulfonyl)benzamide] | < 20 | > 5000
CS(=O)(=O)N1CCc2ccccc2C(N2CCN(c3ccc(C(=O)NS(=O)(=O)c4ccc(NCC5CCOCC5)c([N+](=O)[O-])c4)c(Oc4cnc5[nH]ccc5c4)c3)CC2)C1 (stereo not shown) [Compound 60, 2-((1H-pyrrolo[2,3-b]pyridin-5-yl)oxy)-4-(4-(3-(methylsulfonyl)-2,3,4,5-tetrahydro-1H-benzo[d]azepin-1-yl)piperazin-1-yl)-N-((3-nitro-4-(((tetrahydro-2H-pyran-4-yl)methyl)amino)phenyl)sulfonyl)benzamide] | < 20 | > 5000
O=C(NS(=O)(=O)c1ccc(NCC2CCOCC2)c([N+](=O)[O-])c1)c1ccc(N2CC3(CCN(C4CCCc5ccccc54)C3)C2)cc1Oc1cnc2[nH]ccc2c1 (stereo not shown) [Compound 91, 2-((1H-pyrrolo[2,3-b]pyridin-5-yl)oxy)-N-((3-nitro-4-(((tetrahydro-2H-pyran-4-yl)methyl)amino)phenyl)sulfonyl)-4-(6-(1,2,3,4-tetrahydronaphthalen-1-yl)-2,6-diazaspiro[3.4]octan-2-yl)benzamide] | < 20 | 500 to 5000
O=C(NS(=O)(=O)c1ccc(NCC2CCOCC2)c([N+](=O)[O-])c1)c1ccc(N2CC3(CCN(C4CCCc5ccccc54)CC3)C2)cc1Oc1cnc2[nH]ccc2c1 (stereo not shown) [Compound 92, 2-((1H-pyrrolo[2,3-b]pyridin-5-yl)oxy)-N-((3-nitro-4-(((tetrahydro-2H-pyran-4-yl)methyl)amino)phenyl)sulfonyl)-4-(7-(1,2,3,4-tetrahydronaphthalen-1-yl)-2,7-diazaspiro[3.5]nonan-2-yl)benzamide] | 20 to 200 | 500 to 5000
O=C(NS(=O)(=O)c1ccc(NCC2CCOCC2)c([N+](=O)[O-])c1)c1ccc(N2CCC3(CC2)CN(C2CCCCc4ccccc42)C3)cc1Oc1cnc2[nH]ccc2c1 (stereo not shown) [Compound 93, 2-((1H-pyrrolo[2,3-b]pyridin-5-yl)oxy)-N-((3-nitro-4-(((tetrahydro-2H-pyran-4-yl)methyl)amino)phenyl)sulfonyl)-4-(2-(6,7,8,9-tetrahydro-5H-benzo[7]annulen-5-yl)-2,7-diazaspiro[3.5]nonan-7-yl)benzamide] | 20 to 200 | 500 to 5000
O=C(NS(=O)(=O)c1ccc(NCC2CCOCC2)c([N+](=O)[O-])c1)c1ccc(N2CC3(C2)CN(C2CCCCc4ccccc42)C3)cc1Oc1cnc2[nH]ccc2c1 (stereo not shown) [Compound 95, 2-((1H-pyrrolo[2,3-b]pyridin-5-yl)oxy)-N-((3-nitro-4-(((tetrahydro-2H-pyran-4-yl)methyl)amino)phenyl)sulfonyl)-4-(6-(6,7,8,9-tetrahydro-5H-benzo[7]annulen-5-yl)-2,6-diazaspiro[3.3]heptan-2-yl)benzamide] | 20 to 200 | 500 to 5000
O=C(NS(=O)(=O)c1ccc(NCC2CCOCC2)c([N+](=O)[O-])c1)c1ccc(N2CC3(C2)CN(C2CCCc4ccccc42)C3)cc1Oc1cnc2[nH]ccc2c1 (stereo not shown) [Compound 96, 2-((1H-pyrrolo[2,3-b]pyridin-5-yl)oxy)-N-((3-nitro-4-(((tetrahydro-2H-pyran-4-yl)methyl)amino)phenyl)sulfonyl)-4-(6-(1,2,3,4-tetrahydronaphthalen-1-yl)-2,6-diazaspiro[3.3]heptan-2-yl)benzamide] | 20 to 200 | > 5000
O=C(NS(=O)(=O)c1ccc(NCC2CCOCC2)c([N+](=O)[O-])c1)c1ccc(N2CC3(CCN(C4CCCCc5ccccc54)CC3)C2)cc1Oc1cnc2[nH]ccc2c1 (stereo not shown) [Compound 97, 2-((1H-pyrrolo[2,3-b]pyridin-5-yl)oxy)-N-((3-nitro-4-(((tetrahydro-2H-pyran-4-yl)methyl)amino)phenyl)sulfonyl)-4-(7-(6,7,8,9-tetrahydro-5H-benzo[7]annulen-5-yl)-2,7-diazaspiro[3.5]nonan-2-yl)benzamide] | 20 to 200 | 500 to 5000

— patent US20240239792A1, “MODULATORS OF BCL-2 OR BCL-2/BCL-XL AND USES THEREOF” (APPICINE THERAPEUTICS (HK) LIMITED, priority 2021, published 2024)
